In patent publication US20230027066A1 (Urovant Sciences GmbH, priority 2019, published 2023):
Read-outs that look alike come from different tables or passages of the source.

Experiments:
CYP2D6 = CYP2D6 (Homo sapiens, UniProt P10635); assay: drug interaction study of vibegron and metoprolol succinate (moderately sensitive CYP2D6 substrate); format: in vivo; design: from tissue; host or cells: in vivo, healthy adult human subjects (endogenous enzyme)
[1] = QT Study/Label April 2018, cited from earlier work
[2] = human, plasma, metoprolol 100 mg alone
[3] = metoprolol 100 mg, vibegron 75 mg
[4] = 50 mg repeat-dose, healthy subjects

Chain of CYP2D6 (P10635 whole entry): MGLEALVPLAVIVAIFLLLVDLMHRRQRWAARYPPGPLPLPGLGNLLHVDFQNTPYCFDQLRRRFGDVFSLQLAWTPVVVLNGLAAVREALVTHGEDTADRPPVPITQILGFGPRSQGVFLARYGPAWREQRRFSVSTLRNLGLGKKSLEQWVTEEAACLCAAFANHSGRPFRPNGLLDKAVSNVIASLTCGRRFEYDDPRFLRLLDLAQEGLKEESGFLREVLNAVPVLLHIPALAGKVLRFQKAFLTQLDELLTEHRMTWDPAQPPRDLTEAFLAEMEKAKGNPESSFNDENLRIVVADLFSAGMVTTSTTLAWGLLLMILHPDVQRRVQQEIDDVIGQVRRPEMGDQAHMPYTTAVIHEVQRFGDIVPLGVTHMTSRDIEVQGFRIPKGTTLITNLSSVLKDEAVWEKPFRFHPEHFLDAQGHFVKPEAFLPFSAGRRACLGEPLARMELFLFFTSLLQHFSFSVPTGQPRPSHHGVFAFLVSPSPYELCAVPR

SMILES | AUC(0-inf) (CYP2D6; [2]) [ng·h/mL] | Cmax (CYP2D6; [2]) [ng/mL] | half-life (CYP2D6; human, plasma, metoprolol 100 mg alone, read-out: t1/2, GM (% CV) (converted)) [h] | AUC0-∞, ratio of GLS mean metoprolol + vibegron/metoprolol alone (CYP2D6; [3]) | Cmax, ratio of GLS mean metoprolol + vibegron/metoprolol alone (CYP2D6; [3]) | SBP change 24-hour average, placebo adjusted [1, 4] | SBP change Maximum mean, placebo adjusted [1, 4] | SBP change 24-hour average, placebo adjusted ([1]; 100 mg repeat-dose, healthy subjects) | SBP change 24-hour average, placebo adjusted ([1]; 200 mg repeat-dose, healthy subjects) | HR change Maximum mean, placebo adjusted ([1]; first of doses 50, 100, 200 mg repeat-dose (doses from the Doses line)) [bpm] | HR change Maximum mean, placebo adjusted ([1]; second of doses 50, 100, 200 mg repeat-dose (doses from the Doses line)) [bpm] | HR change Maximum mean, placebo adjusted ([1]; third of doses 50, 100, 200 mg repeat-dose (doses from the Doses line)) [bpm]
COCCc1ccc(OCC(O)CNC(C)C)cc1 (stereo not drawn) [Metoprolol, metoprolol succinate] | 384 | 21.9 | 9.5 | 1.40 | 1.49 | – | – | – | – | – | – | –
Nc1nc(CC(=O)Nc2ccc(CCNC[C@H](O)c3ccccc3)cc2)cs1 [Mirabegron, mirabegron] | – | – | – | – | – | +3.0 mmHg | Maximum mean +4.0 mmHg | +5.5 mmHg | +9.7 mmHg | 6.7 | 11 | 17
